Measurements: US20200270588A1, “GLUCOSYL TRANSFERASE POLYPEPTIDES AND METHODS OF USE” (Syngenta Participations AG, priority 2017, published 2020)
Where “and” joins values, the source holds several entries; their conditions need not be identical. Identical values can stand only once.

Tests used:
Assay type in all cases: biochemical
[1] = biological target: T1, Zea mays bx9 glucosyl transferase (C-terminally his tagged SEQ ID NO: 1) (Zea mays, UniProt B4G072); test: UDP-Glo glucosyl transferase assay, purified enzyme
T1 construct: His tag (C); made in house; host or cells: E. coli BL21 (DE3), pET24a
T1 sequence (B4G072 1-462): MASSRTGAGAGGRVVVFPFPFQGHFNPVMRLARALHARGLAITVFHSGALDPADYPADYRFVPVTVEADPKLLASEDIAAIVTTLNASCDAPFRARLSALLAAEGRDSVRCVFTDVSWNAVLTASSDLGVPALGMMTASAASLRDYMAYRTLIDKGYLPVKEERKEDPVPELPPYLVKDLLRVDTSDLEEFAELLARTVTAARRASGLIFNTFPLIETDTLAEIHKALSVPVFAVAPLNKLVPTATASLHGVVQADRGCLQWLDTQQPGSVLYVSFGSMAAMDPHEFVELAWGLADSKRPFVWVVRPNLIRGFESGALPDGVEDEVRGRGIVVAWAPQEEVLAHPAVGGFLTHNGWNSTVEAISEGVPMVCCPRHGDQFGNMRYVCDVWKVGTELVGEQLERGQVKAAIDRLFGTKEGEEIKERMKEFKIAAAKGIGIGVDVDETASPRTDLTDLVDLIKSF
Method: (§1) Glucosyl transferase activity is assayed via measurement of acceptor substrate-dependent production of UDP from ultrapure UDP-glucose using the Promega UDP-Glo™ method and according to the manufacturer's instructions. Assays are run in 96 well microtiter plates.
(§2) Enzyme, typically at a stock concentration of ˜2 mg/ml is diluted to an appropriate concentration in 50 mM K^+ Hepes buffer at pH7.5 containing 0.5 mg/mL bovine serum albumin (BSA) and 5 ul aliquots of this diluted enzyme added to each well of a Perkin Elmer white ½ area 96 well plate. […] Assays are run for an appropriate time (usually 10 to 60 min) so that the amount of UDP formed lies within the most nearly linear part of the UDP standard curve and are stopped with the addition and mixing of 25 ul UDP-Glo™ detection reagent (prepared as described below). Plates are then incubated at room temperature for 60 minutes and then read in a luminescence plate reader (Perkin Elmer Envision 2130 Multilabel Reader). A UDP standard curve is run alongside each set of assays and reagent blank control assays run with DMSO in place of test herbicide. Typically, 300 pmol of UDP corresponds to a Relative Luminescence Unit (RLU) reading of about 1.5E7 and the response curve between 0 and 600 pmol is fitted to a polynomial function (see for example FIG. 2).
(§3) The UDP-Glo™ reagents are made up and used according to the manufacturer's instructions. Thus, Nucleotide Detection Buffer and ATP are combined to make nucleotide detection reagent (NDR) dispensed into aliquots and frozen to be freshly thawed before use.
(§4) Km and kcat values in respect of UDP-glucose are derived by carrying out experiments to measure initial rates over a suitable range of concentrations of UDP glucose out at a fixed near saturating concentration of acceptor substrate. Best fit values of kcat, Km and kcat/Km are obtained by direct fitting of the data to the Michaelis-Menten equation using Graphpad Prism™ software.

[2] = biological target: T2, SEQ ID NO 20, mutant of Zea mays bx9 glucosyl transferase (Zea mays, UniProt B4G072, A281K/A334K/F21Y/L194V/M279F/S117V); details: lower block, concentration printed only in upper block: V 0.300, VII 0.210; IV, VIII, XI, XXI, XX, XVIII, XVI, XV, XIV 0.200; others 1.000 mM
T2 construct: His tag (C); made in house
Method: as §1
as §2, with “herbicide.” for “herbicide. Typically, 300 pmol of UDP corresponds to a Relative Luminescence Unit (RLU) reading of about 1.5E7 and the response curve between 0 and 600 pmol is fitted to a polynomial function (see for example FIG. 2).”
as §3, §4
All of these proteins were C-terminally his-tagged, expressed and purified as described in Example 1. Assays were run and analyzed as described in example 1.

[3] = biological target: T3, SEQ ID 32, mutant bx-type glucosyl transferase (Zea mays, UniProt Q8W2B7, M283F); test: LC/MS glucosyl transferase assay (glucoside peak area), purified enzyme; details: about 60 min, ~15 pmol enzyme, relative quantification only
T3 construct: 32; 9.98E+05; 1.75E+08; 8.33E+06; His tag; made in house
Method: (§5) In an alternative method for assaying the various enzymes, the test glucosyl transferase enzyme is reacted with substrates exactly as above except that the assay is stopped by adding an equal volume of acetonitrile. Alternatively 50 or 100 μl samples from assay reactions are added to 500 μl ethyl acetate to stop the reaction. In this case samples are then vortexed and 400 μl of the ethyl acetate partition removed, dried down, and resuspended in 100 μl 80:20 acetonitrile/water. The formation of product gluco side and/or disappearance of substrate test herbicide is then monitored directly by LC/MS. Samples are analyzed by LC-MS using an Agilent 1290 liquid chromatography system and Thermo Q-Exactive mass spectrometer. The chromatography is achieved on a Waters Acquity C18 BEH (50×2.1 mm) 1.7 μm particle size column, using a 6 minute gradient run of Water (0.2% formic acid) and Acetonitrile. The Q-Exactive is operated in positive ionisation electrospray mode, using Full scan-AIF mode, at 35,000 resolution, between 100-800 m/z. All analytes are identified from the full scan data to within at least 5 ppm accuracy of their predicted pseudo-molecular ion [M+H]^+ m/z value. In order to obtain quantitative data standard curves are run using herbicides and herbicide glucosides synthesized as standards. Where these synthetic glucosides were not available the LC/MS assay could only be used to provide relative data.
(§6) DNA sequences, optimized for E. coli codon usage, were cloned, expressed and the various proteins purified and assayed as described in the foregoing examples. Using the UDP assay (as described in examples 1, 3 and 6) the data obtained from the Zea mays bx8 w/t protein and its variants was noisy due to relatively high background rates in DMSO reagent blanks. The values reported in the table 15 were thus monitored by LC/MS as described in example 1.

[4] = biological target: T4, SEQ ID 36, mutant bx-type glucosyl transferase (Zea mays, UniProt Q8W2B7, M283F/S121V/S338K); test: as above; details: about 60 min, ~15 pmol enzyme, relative quantification only
T4 construct: 36; 6.03E+06; 6.40E+09; 1.75E+08; His tag; made in house
Method: as §5, §6

[5] = herbicide 0.500 mM, limit of detection about 0.001
[6] = herbicide mM: V 0.300, VI 0.250, VII 0.210, IV, VIII, XI, XXI, XX, XVIII, XVI, XV, XIV 0.200, others 1.000
[7] = 0.5 mM UDP-glucose, 25 C, pH 7.5, DMSO reagent blank as control
[8] = control = inactive H24A mutant of bx9 (asterisk)

SMILES	Activity [1, 5]	Activity [1, 6]	Activity [2]	integrated peak area of beta-glucoside product [3]	integrated peak area of beta-glucoside product [4]	kcat [1, 7]	kcat [1, 8]
CN1CC(O)N(c2cc(C(F)(F)F)c(Cl)cn2)C1=O (stereo not shown) [XI]	0.000 pmol/sec/pmol enzyme	0.000 pmol/sec/pmol enzyme	1.046 pmol/sec/pmol enzyme	9.98E+05 and 1.08E+06	6.03E+06 and 6.40E+06	–	–
Cc1cnc(N2C(=O)N(C)CC2O)cc1C(F)(F)F (stereo not shown) [XVIII]	0.002 pmol/sec/pmol enzyme	0.001 pmol/sec/pmol enzyme	1.141 pmol/sec/pmol enzyme	–	–	0.0040 s⁻¹	–
CN1CC(O)N(c2cc(C(F)(F)F)ccn2)C1=O (stereo not shown) [Compound V]	0.005 pmol/sec/pmol enzyme	0.005 pmol/sec/pmol enzyme	1.889 pmol/sec/pmol enzyme	8.33E+06 and 6.18E+06	1.75E+08 and 1.96E+08	0.012 s⁻¹ and 0.021 s⁻¹	0.0181 s⁻¹
CON1C(=O)N(c2cc(C(F)(F)F)ccn2)C(O)[C@@H]1C (stereo partly shown) [Compound VI]	0.013 pmol/sec/pmol enzyme	0.012 pmol/sec/pmol enzyme	–	1.75E+08 and 1.89E+08	6.40E+09 and 6.87E+09	0.037 s⁻¹ and 0.044 s⁻¹	0.0430 s⁻¹
